In paper PMC6933938, “Comparative physiological, metabolomic, and transcriptomic analyses reveal developmental stage-dependent effects of cluster bagging on phenolic metabolism in Cabernet Sauvignon grape berries” (BMC Plant Biology, 2019):

Biological target: T1, VviFLS4 (Vitis vinifera, UniProt Q2PHJ7)
T1 construct: gene FLS4; pET-48b(+), printed as C-terminal 6xHis tag fusion; E. coli BL21(DE3), Ni2+ column; tag removal not mentioned
T1 sequence (Q2PHJ7 1-335): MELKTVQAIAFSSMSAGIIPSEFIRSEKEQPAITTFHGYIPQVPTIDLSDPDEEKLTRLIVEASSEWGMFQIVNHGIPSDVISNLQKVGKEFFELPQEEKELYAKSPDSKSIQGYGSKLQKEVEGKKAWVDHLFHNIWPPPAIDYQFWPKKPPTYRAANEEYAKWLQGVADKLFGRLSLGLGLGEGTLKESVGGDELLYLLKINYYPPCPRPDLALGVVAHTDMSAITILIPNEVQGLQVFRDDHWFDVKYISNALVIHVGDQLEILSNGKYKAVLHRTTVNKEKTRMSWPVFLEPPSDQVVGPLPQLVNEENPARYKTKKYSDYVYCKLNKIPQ
Assay: HPLC-MS product analysis
Type: biochemical
Details: converted to kaempferol; 0.5 uM substrate, 10 mM alpha-ketoglutaric acid, 0.25 mM FeSO4, 10 mM ascorbic acid, 100 mM NaH2PO4 pH 6.0, 25 C, 1 h

With `O=C1c2c(O)cc(O)cc2O[C@H](c2ccc(O)cc2)[C@H]1O` [dihydrokaempferol] as the molecule, how does the HPLC-MS product analysis read?
Its HPLC-MS product analysis is “DHK into kaempferol, and dihydroquercetin (DHQ) into quercetin, respectively”.
